Assay results: US12410160B2 (Gilead Sciences, Inc., priority 2021, dated 2025)
Like-named read-outs stand apart in the source and are kept apart here.

Columns and labels:
[1] = test system: HepG2 cells; experiment: F1P Cell-Based Assay (EC50), 13C6-fructose-1-phosphate in HepG2 cells (cell culture medium or 50% human plasma)
[2] = target: human KHK-C (Homo sapiens (Human), UniProt P50053); experiment: KHK Biochemical Assay (IC50), ADP-Glo, KHK-C; conditions: average of at least two separate assays
How it was run: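 His-tagged enzyme expressed in BL21 (DE3), Ni-NTA purified. Compounds, serially diluted 1:3 in DMSO, pre-incubated 30 min with enzyme in 50 mM Hepes pH 7.4, 140 mM KCl, 5 mM MgCl2, 0.01% Triton-X, then ATP and fructose added; 4 h at room temperature. ADP formation read by ADP-Glo luminescence.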

[3] = Homo sapiens, HepG2, HepG2 cells, 50% human plasma, read-out: F1P 50% HP EC50
[4] = Homo sapiens, HepG2, read-out: F1P 10% FBS EC50, HepG2 cells, cell culture medium (10% FBS)
[5] = HepG2 cells, 50% human plasma, read-out: F1P 50% HP EC50
[6] = read-out: F1P 10% FBS EC50, HepG2 cells, cell culture medium (10% FBS)

human KHK-C, sequence (P50053 whole entry): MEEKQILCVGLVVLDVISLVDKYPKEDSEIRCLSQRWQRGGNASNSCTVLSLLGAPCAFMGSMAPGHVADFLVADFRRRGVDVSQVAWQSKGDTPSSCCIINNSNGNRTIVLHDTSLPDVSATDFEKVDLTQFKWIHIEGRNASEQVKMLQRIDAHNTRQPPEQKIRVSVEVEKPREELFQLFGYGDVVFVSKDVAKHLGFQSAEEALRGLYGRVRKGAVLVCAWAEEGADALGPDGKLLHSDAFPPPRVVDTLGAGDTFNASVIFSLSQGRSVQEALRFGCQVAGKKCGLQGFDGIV

SMILES	EC50 [1, 3]	EC50 [1, 4]	IC50 [2]	EC50 [1, 5]	EC50 [1, 6]	EC50 ([1]; Homo sapiens, HepG2, read-out: F1P 10% FBS EC50)	EC50 ([1]; Homo sapiens, HepG2, read-out: F1P 50% HP EC50)
C[C@H]1[C@H](F)CN1c1nc(-c2ccc3c(c2)O[C@H](CO)CNC3=O)c2c(n1)C(F)(F)CC2 [Example 590, (S)-8-(7,7-difluoro-2-((2S,3R)-3-fluoro-2-methylazetidin-1-yl)-6,7-dihydro-5H-cyclopenta[d]pyrimidin-4-yl)-2-(hydroxymethyl)-3,4-dihydrobenzo[f][1,4]oxazepin-5(2H)-one]	23.2 nM	9.1 nM	1.8 nM	–	–	–	–
CCC1CNC(=O)c2ccc(-c3nc(N4C[C@@H](O)[C@@H]4C)nc4c3CCC4(F)F)cc2O1 (stereo partly drawn) [Example 591, 8-(7,7-difluoro-2-((2S,3R)-3-hydroxy-2-methylazetidin-1-yl)-6,7-dihydro-5H-cyclopenta[d]pyrimidin-4-yl)-2-ethyl-3,4-dihydrobenzo[f][1,4]oxazepin-5(2H)-one]	36 nM	13.5 nM	5.5 nM	–	–	–	–
C[C@H]1[C@H](O)CN1c1nc(-c2ccc3c(c2)OC(CF)CNC3=O)c2c(n1)C(F)(F)CC2 (stereo partly drawn) [Example 594, 8-(7,7-difluoro-2-((2S,3R)-3-hydroxy-2-methylazetidin-1-yl)-6,7-dihydro-5H-cyclopenta[d]pyrimidin-4-yl)-2-(fluoromethyl)-3,4-dihydrobenzo[f][1,4]oxazepin-5(2H)-one]	21 nM	12.6 nM	3.3 nM	–	–	–	–
C[C@H]1[C@H](O)CN1c1nc(-c2cccc([C@H]3CCS(=O)(=O)N3)c2)c2c(n1)C(F)(F)CC2 [Example 617]	–	–	3.5 nM	30.7 nM	10.2 nM	–	–
C[C@H]1[C@H](O)CN1c1nc(-c2cccc(CN3CCCS3(=O)=O)c2)c2c(n1)C(F)(F)CC2 [Example 620]	113 nM	19.1 nM	9.7 nM	–	–	–	–
C[C@H]1[C@H](O)CN1c1nc(-c2ccc3c(c2)OC[C@@H]3NS(=O)(=O)C2CC2)c2c(n1)C(F)(F)CC2 [Example 625]	72.2 nM	17.6 nM	1.5 nM	–	–	–	–
C[C@H]1[C@H](O)CN1c1nc(-c2ccc3c(c2)OC[C@@H]3NS(=O)(=O)c2ccccc2)c2c(n1)C(F)(F)CC2 [Example 626, N-((R)-6-(7,7-difluoro-2-((2S,3R)-3-hydroxy-2-methylazetidin-1-yl)-6,7-dihydro-5H-cyclopenta[d]pyrimidin-4-yl)-2,3-dihydrobenzofuran-3-yl)benzenesulfonamide]	123 nM	35.6 nM	26.8 nM	–	–	–	–
C[C@H]1[C@H](O)CN1c1nc(-c2ccc3c(c2)OC[C@@H]3NS(=O)(=O)CC#N)c2c(n1)C(F)(F)CC2 [Example 627, 1-cyano-N-((R)-6-(7,7-difluoro-2-((2S,3R)-3-hydroxy-2-methylazetidin-1-yl)-6,7-dihydro-5H-cyclopenta[d]pyrimidin-4-yl)-2,3-dihydrobenzofuran-3-yl)methanesulfonamide]	4.1 nM	4.5 nM	6 nM	–	–	–	–
CC1(C)CC(NS(C)(=O)=O)c2ccc(-c3nc(N4CC[C@@H]4CF)nc4c3CCC4(F)F)cc21 (stereo partly drawn) [Example 629, N-(5-(7,7-difluoro-2-((R)-2-(fluoromethyl)azetidin-1-yl)-6,7-dihydro-5H-cyclopenta[d]pyrimidin-4-yl)-3,3-dimethyl-2,3-dihydro-1H-inden-1-yl)methanesulfonamide]	> 500 nM	107 nM	4.1 nM	–	–	–	–
C[C@H]1[C@H](O)CN1c1nc(-c2ccc3c(c2)C(C)(C)CC3NS(C)(=O)=O)c2c(n1)C(F)(F)CC2 (stereo partly drawn) [Example 630, N-(5-(7,7-difluoro-2-((2S,3R)-3-hydroxy-2-methylazetidin-1-yl)-6,7-dihydro-5H-cyclopenta[d]pyrimidin-4-yl)-3,3-dimethyl-2,3-dihydro-1H-inden-1-yl)methanesulfonamide]	> 500 nM	68.8 nM	2.4 nM	–	–	–	–
C[C@H]1[C@H](O)CN1c1nc(-c2ccc3c(c2)CCNC3)c2c(n1)C(F)(F)CC2 [Example 657, (2S,3R)-1-[7,7-difluoro-4-(1,2,3,4-tetrahydroisoquinolin-6-yl)-5,6-dihydrocyclopenta[d]pyrimidin-2-yl]-2-methyl-azetidin-3-ol]	–	–	2.7 nM	–	–	4.1 nM	4.2 nM
C[C@H]1[C@H](O)CN1c1nc(-c2ccc([C@@H](N)C(F)F)cc2)c2c(n1)C(F)(F)CC2 [Example 659, (2S,3R)-1-[4-[4-[(1R)-1-amino-2,2-difluoro-ethyl]phenyl]-7,7-difluoro-5,6-dihydrocyclopenta[d]pyrimidin-2-yl]-2-methyl-azetidin-3-ol]	54 nM	42.5 nM	8 nM	–	–	–	–
C[C@H]1[C@H](O)CN1c1nc(-c2ccc3c(c2)OC[C@@H]3n2ccnn2)c2c(n1)C(F)(F)CC2 [Example 670]	31.4 nM	25.3 nM	24.3 nM	–	–	–	–
C[C@H]1[C@H](O)CN1c1nc(-c2cccc(N=S3(=O)CCCC3)c2)c2c(n1)C(F)(F)CC2 [Example 671, (2S,3R)-1-[7,7-difluoro-4-[3-[(1-oxothiolan-1-ylidene)amino]phenyl]-5,6-dihydroeyelopenta[d]pyrimidin-2-yl]-2-methyl-azetidin-3-ol]	269 nM	35.1 nM	32.9 nM	–	–	–	–
C[C@H]1[C@H](O)CN1c1nc(-c2cccc(N=S3(=O)CCNCC3)c2)c2c(n1)C(F)(F)CC2 [Example 672, (2S,3R)-1-[7,7-difluoro-4-[3-[(1-oxo-1,4-thiazinan-1-ylidene)amino]phenyl]-5,6-dihydroeyelopenta[d]pyrimidin-2-yl]-2-methyl-azetidin-3-ol]	105 nM	56.2 nM	33.2 nM	–	–	–	–
C[C@H]1[C@H](F)CN1c1nc(-c2ccc3c(c2)S(=O)(=O)CC3NS(C)(=O)=O)c2c(n1)C(F)(F)CC2 (stereo partly drawn) [Example 674, N-[6-[7,7-difluoro-2-[(2S,3R)-3-fluoro-2-methyl-azetidin-1-yl]-5,6-dihydrocyclopenta[d]pyrimidin-4-yl]-1,1-dioxo-2,3-dihydrobenzothiophen-3-yl]methanesulfonamide]	232 nM	3 nM	0.2 nM	–	–	–	–

Now from value to compound, other results behind:

EC50 [1, 3]	EC50 [1, 4]	IC50 [2]	EC50 [1, 5]	EC50 [1, 6]	SMILES	EC50 ([1]; Homo sapiens, HepG2, read-out: F1P 10% FBS EC50)	EC50 ([1]; Homo sapiens, HepG2, read-out: F1P 50% HP EC50)
> 500 nM	314 nM	33.6 nM	–	–	C[C@H]1[C@H](O)CN1c1nc(-c2ccc3c(c2)CCCCC3NS(C)(=O)=O)c2c(n1)C(F)(F)CC2 (stereo partly drawn) [Example 547, N-(2-(7,7-difluoro-2-((2S,3R)-3-hydroxy-2-methylazetidin-1-yl)-6,7-dihydro-5H-cyclopenta[d]pyrimidin-4-yl)-6,7,8,9-tetrahydro-5H-benzo[7]annulen-5-yl)methanesulfonamide]	–	–
> 500 nM	92.9 nM	59.7 nM	–	–	C[C@H]1CCN1c1nc2c(c(-c3cccc(S(=N)(=O)C(F)F)c3)n1)CCC2 (stereo partly drawn) [Example 602, (difluoromethyl)(imino)(3-(2-((S)-2-methylazetidin-1-yl)-6,7-dihydro-5H-cyclopenta[d]pyrimidin-4-yl)phenyl)-λ^6-sulfanone]	–	–
103 nM	77.2 nM	25.5 nM	–	–	C[C@H]1[C@H](O)CN1c1nc(-c2cccc(S(=N)(=O)C(F)F)c2)c2c(n1)C(F)(F)CC2 (stereo partly drawn) [Example 603, (3-(7,7-difluoro-2-((2S,3R)-3-hydroxy-2-methylazetidin-1-yl)-6,7-dihydro-5H-cyclopenta[d]pyrimidin-4-yl)phenyl)(difluoromethyl)(imino)-λ^6-sulfanone]	–	–
23.2 nM	6.8 nM	0.7 nM	–	–	C[C@H]1CCN1c1nc(-c2ccc3c(c2)[C@H](NS(C)(=O)=O)CC3)c2c(n1)C(F)(F)CC2 [Example 608, N—((R)-6-(7,7-difluoro-2-((S)-2-methylazetidin-1-yl)-6,7-dihydro-5H-cyclopenta[d]pyrimidin-4-yl)-2,3-dihydro-1H-inden-1-yl)methanesulfonamide]	–	–
11.8 nM	4.5 nM	1.7 nM	–	–	C[C@H]1CCN1c1nc(-c2ccc3c(c2)S(=O)(=O)CC3N)c2c(n1)C(F)(F)CC2 (stereo partly drawn) [Example 656, 6-[7,7-difluoro-2-[(2S)-2-methylazetidin-1-yl]-5,6-dihydrocyclopenta[d]pyrimidin-4-yl]-1,1-dioxo-2,3-dihydrobenzothiophen-3-amine]	–	–
–	–	42.3 nM	305 nM	61.3 nM	C[C@H]1[C@H](O)CN1c1nc(-c2cccc(N=S(C)(=O)C3CC3)c2)c2c(n1)C(F)(F)CC2 (stereo partly drawn) [Example 667, (2S,3R)-1-[4-[3-[(cyclopropyl-methyl-oxo-λ^6-sulfanylidene)amino]phenyl]-7,7-difluoro-5,6-dihydrocyclopenta[d]pyrimidin-2-yl]-2-methyl-azetidin-3-431]	–	–
> 500 nM	46.7 nM	32.1 nM	–	–	C[C@H]1CCN1c1nc(-c2cccc(N=S(C)(=O)C3CC3)c2)c2c(n1)C(F)(F)CC2 (stereo partly drawn) [Example 668, cyclopropyl-[3-[7,7-difluoro-2-[(2S)-2-methylazetidin-1-yl]-5,6-dihydrocyclopenta[d]pyrimidin-4-yl]phenyl]imino-methyl-oxo-λ^6-sulfane]	–	–
429 nM	28.6 nM	16.2 nM	–	–	C[C@H]1CCN1c1nc(-c2cccc(N=S3(=O)CCCC3)c2)c2c(n1)C(F)(F)CC2 [Example 669, 1-[3-[7,7-difluoro-2-[(2S)-2-methylazetidin-1-yl]-5,6-dihydrocyclopenta[d]pyrimidin-4-yl]phenyl]iminothiolane 1-oxide]	–	–
101 nM	75.2 nM	41.7 nM	–	–	CS(=N)(=O)c1cccc(-c2nc(N3CC[C@@H]3C#N)nc3c2CCC3(F)F)c1 (stereo partly drawn) [Example 709, (2R)-1-(7,7-difluoro-4-(3-(S-methylsulfonimidoyl)phenyl)-6,7-dihydro-5H-cyclopenta[d]pyrimidin-2-yl)azetidine-2-carbonitrile]	–	–
